pIC50: −log10 of the molar value. The source made the active and inactive calls. No cut-off for these calls is given here.
Columns and labels:
Danio rerio [1] = species on record: Danio rerio; assay: Anti-angiogenic activity in transgenic zebrafish Tg(fli1a:EGFP)y1 1 to 4 cell stage embryo assessed as down-regulation of Tie-2 angiogenic gene expression measured after 24 hrs by real-time PCR analysis; type: functional
HMEC-1 [2] = assay: Antimigratory activity against HMEC1 cells assessed as decrease in cell motility measured after 24 hrs by scratch wound assay; type: functional, cell-based; settings: Homo sapiens
Danio rerio [3] = species on record: Danio rerio; assay: Anti-angiogenic activity in transgenic zebrafish Tg(fli1a:EGFP)y1 1 to 4 cell stage embryo assessed as down-regulation of Ang-1 angiogenic gene expression measured after 24 hrs by real-time PCR analysis; type: functional
HMEC-1 [4] = assay: Effect on cell adhesion gene expression in TNFalpha stimulated HMEC1 cells assessed as reduction in E-selectin mRNA level at 1000 or 3000 nM measured after 12 hrs by real-time PCR analysis; type: functional, Homo sapiens; parameters: scale not given: the % may be the effect or the level left
[5] = Cytotoxicity against human HMEC1 cells at 1000 or 3000 nM measured after 12 hrs by MTT assay; type: cell-based; settings: hmec-1, 12 h
HMEC-1 [6] = assay: Effect on cell adhesion gene expression in TNFalpha stimulated HMEC1 cells assessed as reduction in ICAM1 mRNA level at 1000 or 3000 nM measured after 12 hrs by real-time PCR analysis; type: functional, Homo sapiens; parameters: scale not given: the % may be the effect or the level left
Danio rerio [7] = species on record: Danio rerio; assay: Anti-angiogenic activity in transgenic zebrafish Tg(fli1a:EGFP)y1 1 to 4 cell stage embryo assessed as complete inhibition of subintestinal vessels formation measured at 100 uM after 48 hrs by fluorescent microscopy; type: functional, tissue-based
Danio rerio [8] = species on record: Danio rerio; assay: Anti-angiogenic activity in transgenic zebrafish Tg(fli1a:EGFP)y1 1 to 4 cell stage embryo assessed as inhibition of subintestinal vessel length measured at 25 to 100 uM after 48 hrs by fluorescent microscopy; type: functional, tissue-based
HMEC-1 [9] = assay: Effect on cell adhesion gene expression in TNFalpha stimulated HMEC1 cells assessed as reduction in VCAM1 mRNA level at 1000 or 3000 nM measured after 12 hrs by real-time PCR analysis; type: functional, Homo sapiens; parameters: scale not given: the % may be the effect or the level left
Danio rerio [10] = species on record: Danio rerio; assay: Anti-angiogenic activity in transgenic zebrafish Tg(fli1a:EGFP)y1 1 to 4 cell stage embryo assessed as down-regulation of Tie-1 angiogenic gene expression measured after 24 hrs by real-time PCR analysis; type: functional
PBMC [11] = assay: Immunomodulatory effect in phytohemagglutininin-activated human PBMC assessed as inhibition of INFgamma production measured after 24 hrs by ELISA; type: functional, cell-based
PBMC [12] = assay: Immunomodulatory effect in phytohemagglutininin-activated human PBMC assessed as inhibition of TNFalpha production measured after 24 hrs by ELISA; type: functional, cell-based
HMEC-1 [13] = assay: Inhibition of cell proliferation of HMEC1 cells assessed as [methyl-3H] thymidine incorporation measured after 48 hrs; type: functional, cell-based; settings: Homo sapiens
HMEC-1 [14] = assay: Effect on cell adhesion gene expression in TNFalpha stimulated HMEC1 cells assessed as reduction in ICAM1 protern expression at 1000 or 3000 nM measured after 24 hrs by Western blotting; type: functional, cell-based; settings: Homo sapiens
HMEC-1 [15] = assay: Inhibition of HMEC1 cells growth measured after 48 hrs by MTT assay; type: functional, cell-based; settings: Homo sapiens, HMEC-1, 48 h
PBMC [16] = assay: Immunomodulatory effect in phytohemagglutininin-activated human PBMC assessed as stimulation of cell proliferation at 62.5 to 250 nM measured after 72 hrs; type: functional, cell-based
PBMC [17] = assay: Cytotoxicity against human PBMC at 62.5 to 250 nM for 72 hrs by XTT assay; type: cell-based; settings: 0.25 µM
PBMC [18] = assay: Immunomodulatory effect in phytohemagglutininin-activated human PBMC assessed as inhibition of IL2 production measured after 24 hrs by ELISA; type: functional, cell-based
HMEC-1 [19] = assay: Effect on cell adhesion gene expression in TNFalpha stimulated HMEC1 cells assessed as reduction in VCAM1 protern expression at 1000 or 3000 nM measured after 24 hrs by Western blotting; type: functional, cell-based; settings: Homo sapiens
HMEC-1 [20] = assay: Effect on cell adhesion gene expression in TNFalpha stimulated HMEC1 cells assessed as reduction in E-selectin protern expression at 1000 or 3000 nM measured after 24 hrs by Western blotting; type: functional, cell-based; settings: Homo sapiens
Danio rerio [21] = species on record: Danio rerio; assay: Anti-angiogenic activity in transgenic zebrafish Tg(fli1a:EGFP)y1 1 to 4 cell stage embryo assessed as inhibition of subintestinal vessels formation measured after 48 hrs by fluorescent microscopy; type: functional, tissue-based
PBMC [22] = assay: Immunomodulatory effect in phytohemagglutininin-activated human PBMC assessed as inhibition of IL12 production measured after 24 hrs by ELISA; type: functional, cell-based
[23] = Cytotoxicity against human HMEC1 cells; type: cell-based; settings: hmec-1
HMEC-1 [24] = assay: Inhibition of HMEC1 cells growth measured after 48 hrs; type: functional, cell-based; settings: Homo sapiens, HMEC-1, 48 h
Danio rerio [25] = species on record: Danio rerio; assay: Anti-angiogenic activity in transgenic zebrafish Tg(fli1a:EGFP)y1 1 to 4 cell stage embryo assessed as down-regulation of Ang-2 angiogenic gene expression measured after 24 hrs by real-time PCR analysis; type: functional

C=C1C(=O)O[C@H]2C[C@@H](C)[C@@H]3C=CC(=O)[C@@]3(C)[C@@H](OC(C)=O)[C@H]12 [BIGELOVIN]
inhibition (Danio rerio [1]): Active | inhibition (HMEC-1 [2]): Dose-dependent effect | inhibition (Danio rerio [3]): Active | Activity (HMEC-1 [4]): 67% | Activity [5]: Non-toxic | Activity (HMEC-1 [6]): 76% | inhibition (HMEC-1 [6]; Homo sapiens): Dose-dependent effect | inhibition (Danio rerio [7]): Active | inhibition (Danio rerio [8]): Active | Activity (HMEC-1 [9]): 74% | inhibition (Danio rerio [10]): inactive | inhibition (PBMC [11]): Dose-dependent effect | inhibition (PBMC [12]): Dose-dependent effect | inhibition (HMEC-1 [13]): Dose-dependent effect | Activity (HMEC-1 [14]): Active | pIC50 (HMEC-1 [15]): 5.57 | Activity (PBMC [16]): Active | Activity (PBMC [17]): Non-toxic | inhibition (PBMC [18]): Dose-dependent effect | Activity (HMEC-1 [19]): Active | Activity (HMEC-1 [20]): Active | inhibition (Danio rerio [21]): Dose-dependent effect | inhibition (PBMC [22]): Dose-dependent effect | Activity [23]: Non-toxic | inhibition (INH) [23]: Dose-dependent effect | pIC50 (HMEC-1 [24]): 6.02 | inhibition (Danio rerio [25]): Active
